Drawing on PubChem BioAssay AID264 (DTP/NCI, 2004), this text covers T/C for 20 molecules.

The subject of this assay is nude mice, LX-1 lung xenograft intrarenal, tumor weight T/C. As to the kind of experiment: NCI In Vivo Anticancer Drug Screen. Data for tumor model Human Lung LX-1 Xenograft (intrarenal inoculation) in NU/NU Swiss (nude) mice. Particulars: endpoint: mean tumor weight change, higher = larger tumour. A digest of the protocol: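 In vivo, transplantable tumor; compound vs vehicle arms; tumor size measured; value = T/C.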

The mark [1] stands for this setting: dose: 2.0 mg/kg/injection, schedule: Q01DX010 (sc), vehicle: saline.
Setting [2] is: dose: 4.0 mg/kg/injection, schedule: Q01DX010 (sc), vehicle: saline.
The mark [3] stands for this setting: dose: 600.0 mg/kg/injection, schedule: Q04DX003 (sc), vehicle: saline with Tween-80.
Setting [4] is: dose: 1200.0 mg/kg/injection, schedule: Q04DX003 (sc), vehicle: saline with Tween-80.
Where [5] appears, read: dose: 2400.0 mg/kg/injection, schedule: Q04DX003 (sc), vehicle: saline with Tween-80.
Setting [6] is: dose: 300.0 mg/kg/injection, schedule: Q04DX003 (sc), vehicle: Klucel (hydroxypropylcellulose) (HPC).
Setting [7] is: dose: 600.0 mg/kg/injection, schedule: Q04DX003 (sc), vehicle: Klucel (hydroxypropylcellulose) (HPC).
[8] abbreviates: dose: 1200.0 mg/kg/injection, schedule: Q04DX003 (sc), vehicle: Klucel (hydroxypropylcellulose) (HPC).
The mark [9] stands for this setting: dose: 300.0 mg/kg/injection, schedule: Q04DX003 (sc), vehicle: saline with Tween-80.

“And” between values parts separate entries of the source, which are not always exact repeats. Equal entries are not always repeated. Records with an inconclusive call do not appear. Numbered stars: 1 amine (or outer) side, 2 acyl side, 3 side chain; on linkers, the order of the positions; unused ones are H or OH. Square brackets hold non-standard residues; d marks the D form. Peptide text beside a SMILES is read from it. * marks the point of attachment. X2 = CCC(=O)CC1CC(C)CC(C(=O)[*:2])N1[*:1]; X1 = CCCCCCCCC(C)C(=O)*; Aib = CC(C)(N)C(=O)O; X3 = CC(CN(C)CCO)N*

As to `NC(=O)c1csc(C2OC(CO)C(O)C2O)n1` (centres undefined), the T/C runs as follows: (dose: 200.0 mg/kg/injection, schedule: Q04DX003 (sc), vehicle: water) 77 % of control; (dose: 400.0 mg/kg/injection, schedule: Q04DX003 (sc), vehicle: water) 64 % of control; (dose: 800.0 mg/kg/injection, schedule: Q04DX003 (sc), vehicle: water) 99 % of control; (dose: 1600.0 mg/kg/injection, schedule: Q04DX003 (sc), vehicle: water) 97 % of control.

For the molecule `CCCCCCCC(=O)OCC(=O)[C@]1(O)Cc2c(O)c3c(c(O)c2[C@@H](OC2CC(N)C(O)C(C)O2)C1)C(=O)c1c(OC)cccc1C3=O` (some centres undefined), the T/C under setting [1] is 104 % of control and the T/C under setting [2] is 173 % of control.

For the molecule `Cc1c(N)nc([C@H](CC(N)=O)NC[C@H](N)C(N)=O)nc1C(=O)N[C@H](C(=O)N[C@H](C)[C@@H](O)[C@H](C)C(=O)N[C@H](C(=O)NCCc1nc(-c2nc(C(=O)NCCC[S+](C)C)cs2)cs1)[C@@H](C)O)C(OC1OC(CO)C(O)C(O)C1OC1OC(CO)C(O)C(OC(N)=O)C1O)c1cnc[nH]1` (some centres undefined), the T/C reads like this: under setting [1], 14 % of control; under setting [2], 71 % of control; (dose: 16.0 mg/kg/injection, schedule: Q04DX003 (sc), vehicle: saline) 49 % of control; (dose: 32.0 mg/kg/injection, schedule: Q04DX003 (sc), vehicle: saline) 47 % of control.

In the case of `COC1=C(OC)C(=O)C(SC/C=C(\C)CCCC(C)CCCC(C)CCCC(C)C)=CC1=O` (centres undefined), the T/C by setting is: under setting [3], 91 % of control; under setting [4], 40 % of control; under setting [5], 55 % of control.

In the case of `C[C@]12CC[C@H]3[C@@H](CCC4=C[C@@H](OC5OCC(OC6OC(CO)C(O)C(O)C6O)C(O)C5O)CC[C@@]43C=O)[C@@]1(O)CCC2C1=CC(=O)OC1` (some centres undefined), the T/C (dose: 7.5 mg/kg/injection, schedule: Q04DX003 (sc), vehicle: Klucel (hydroxypropylcellulose) (HPC)) was 77 % of control; the T/C (dose: 30.0 mg/kg/injection, schedule: Q04DX003 (sc), vehicle: Klucel (hydroxypropylcellulose) (HPC)) is 79 % of control; the T/C (dose: 60.0 mg/kg/injection, schedule: Q04DX003 (sc), vehicle: Klucel (hydroxypropylcellulose) (HPC)) was 79 % of control.

For `CCCCCCCCC(C)C(=O)N1CCCC1C(=O)N1C(CC(=O)CC)CC(C)CC1C(=O)NC(C)C(=O)NC(C)(C)C(=O)NC(C)(C)C(=O)NC(C(=O)NC(C)C(=O)NC(C)(C)C(=O)NC(C)(C)C(=O)NC(C)CN(C)CCO)C(C)CC` (centres undefined) (X1-P[X2]A[Aib][Aib]IA[Aib][Aib]-X3; configuration not given here), the T/C (dose: 5.0 mg/kg/injection, schedule: Q04DX003 (sc), vehicle: Klucel (hydroxypropylcellulose) (HPC)) was 270 % of control.

For `COc1ccc2c(NCCCCCCNc3c4ccccc4nc4cc(OC)ccc34)c3ccccc3nc2c1`, the T/C is 105 % of control (dose: 1.25 mg/kg/injection, schedule: Q01DX010 (sc), vehicle: lactic acid); 100 % of control (dose: 2.5 mg/kg/injection, schedule: Q01DX010 (sc), vehicle: lactic acid); 48 % of control (dose: 10.0 mg/kg/injection, schedule: Q01DX010 (sc), vehicle: lactic acid).

`COCC1OC2OC3C(COC)OC(OC4C(COC)OC(OC5C(COC)OC(OC6C(COC)OC(OC7C(COC)OC(OC8C(COC)OC(OC1C(O)C2O)C(O)C8O)C(O)C7O)C(O)C6O)C(O)C5O)C(O)C4O)C(O)C3O` (centres undefined) (tested in a mixture with another compound): for the setting “dose: 200.0 mg/kg/injection, schedule: Q04DX003 (sc), vehicle: Klucel (hydroxypropylcellulose) (HPC)”, the T/C was 156 % of control.

`CCN(CC)CCC(=O)c1ccccc1`: the T/C (dose: 150.0 mg/kg/injection, schedule: Q04DX003 (sc), vehicle: saline with Tween-80) was 81 % of control.

On to `COc1cccc2c1C(=N)c1c(O)c3c(c(O)c1C2=O)C[C@@](O)(C(C)=O)C[C@@H]3OC1CC(N)C(O)C(C)O1` (some centres undefined), for which the T/C (dose: 24.0 mg/kg/injection, schedule: Q04DX003 (sc), vehicle: water) was 46 % of control; the T/C (dose: 48.0 mg/kg/injection, schedule: Q04DX003 (sc), vehicle: water) was 10 % of control; the T/C (dose: 96.0 mg/kg/injection, schedule: Q04DX003 (sc), vehicle: water) was 23 % of control.

For `O=[Te]=O`, the T/C (dose: 12.5 mg/kg/injection, schedule: Q04DX003 (sc), vehicle: suspension in saline) is 150 % of control.

For the molecule `OCC1OC(n2cnc3c(NO)ncnc32)C(O)C1O` (centres undefined), the T/C by setting is: under setting [6], 105 % of control; under setting [7], 102 % of control; under setting [8], 86 % of control; (dose: 2400.0 mg/kg/injection, schedule: Q04DX003 (sc), vehicle: Klucel (hydroxypropylcellulose) (HPC)) 68 % of control.

`COC1(OC)C2C=CC1CC2`: the T/C was 105 % of control under setting [9], 150 % of control under setting [3] and 104 % of control under setting [4].

For `CN(C)CCOc1ccc2c(c1)C/C(=C/c1ncc([N+](=O)[O-])n1C)C2=O`, the T/C is, setting by setting: under setting [9], 93 % of control; under setting [3], 82 % of control; under setting [4], 44 % of control; under setting [5], 61 % of control.

In the case of `COc1cc(C(=O)c2cocc2C(=O)c2ccc3c(c2)OCO3)cc(OC)c1OC`, the T/C reads like this: under setting [6], 160 % of control; under setting [7], 80 % of control; under setting [8], 94 % of control.

As for `COc1cccc2c1C(=O)c1c(O)c3c(c(O)c1C2=O)C[C@@](O)(C(=O)CO)C[C@@H]3OC1CC(N)CC(C)O1` (some centres undefined), the T/C (dose: 1.5 mg/kg/injection, schedule: Q01DX010 (sc), vehicle: water) was 23 % of control.

As for `COC(=O)C12OCC34C(CC5C(C)=CC(=O)C(O)C5(C)C3C(O)C1O)OC(=O)C(OC(=O)CC(C)C)C24` (centres undefined), the T/C (dose: 3.0 mg/kg/injection, schedule: Q04DX003 (sc), vehicle: saline + alcohol) is 48 % of control.

Turning to `C=C(C)C(=O)OC1C/C(CO)=C\C(O)C/C(C)=C/C2OC(=O)C(=C)C21` (centres undefined), the T/C (dose: 20.0 mg/kg/injection, schedule: Q04DX003 (sc), vehicle: saline + alcohol) was 96 % of control; the T/C (dose: 40.0 mg/kg/injection, schedule: Q04DX003 (sc), vehicle: saline + alcohol) was 119 % of control; the T/C (dose: 80.0 mg/kg/injection, schedule: Q04DX003 (sc), vehicle: saline + alcohol) was 104 % of control; the T/C (dose: 160.0 mg/kg/injection, schedule: Q04DX003 (sc), vehicle: saline + alcohol) was 107 % of control.

Consider `O=c1[nH]cc(F)c(=O)[nH]1`, for which the T/C is 107 % of control (dose: 5.0 mg/kg/injection, schedule: Q01DX010 (sc), vehicle: saline); 56 % of control (dose: 20.0 mg/kg/injection, schedule: Q01DX010 (sc), vehicle: saline); 25 % of control (dose: 40.0 mg/kg/injection, schedule: Q01DX010 (sc), vehicle: saline).

Turning to `CCC/C=C/C=C/C(=O)OC1/C(=C/C(=O)OC)CC2CC(C(C)O)OC(=O)CC(O)CC3CC(OC(C)=O)C(C)(C)C(O)(CC4C/C(=C/C(=O)OC)CC(/C=C/C(C)(C)C1(O)O2)O4)O3` (centres undefined), the T/C (dose: 0.25 mg/kg/injection, schedule: Q04DX003 (sc), vehicle: saline + alcohol) is 112 % of control; the T/C (dose: 0.5 mg/kg/injection, schedule: Q04DX003 (sc), vehicle: saline + alcohol) is 96 % of control; the T/C (dose: 1.0 mg/kg/injection, schedule: Q04DX003 (ip), vehicle: saline + alcohol) is 96 % of control; the T/C (dose: 1.0 mg/kg/injection, schedule: Q04DX003 (sc), vehicle: saline + alcohol) was 59 % of control; the T/C (dose: 2.0 mg/kg/injection, schedule: Q04DX003 (ip), vehicle: saline + alcohol) is 119 % of control; the T/C (dose: 2.0 mg/kg/injection, schedule: Q04DX003 (sc), vehicle: saline + alcohol) was 27 % of control and 40 % of control. For the same molecule, the T/C is, setting by setting: (dose: 4.0 mg/kg/injection, schedule: Q04DX003 (ip), vehicle: saline + alcohol) 76 % of control; (dose: 8.0 mg/kg/injection, schedule: Q04DX003 (ip), vehicle: saline + alcohol) 81 % of control; (dose: 8.0 mg/kg/injection, schedule: Q04DX003 (sc), vehicle: saline + alcohol) 16 % of control; (dose: 10.0 mg/kg/injection, schedule: Q04DX003 (ip), vehicle: saline + alcohol) 93 % of control.
